The values that follow come from patent publication US20170119742A1, “MEDICAMENT FOR PREVENTING AND/OR TREATING STRESS DISEASES” (ONO PHARMACEUTICAL CO., LTD., priority 2014, published 2017).

The target of assay [1] is T1, brain TSPO (Rattus norvegicus, UniProt P16257).
T1 construct: measured by using brain (cerebral cortex and hippocampus) homogenates of the vehicle treated group and the compound of the present invention treated group; from tissue; host or cells: Wistar rat brain (cerebral cortex, hippocampus) homogenate
Briefly: Comparison of radiotracer in rat ex vivo brain occupancy (Biological example 5). To be noted: po, rat cerebral cortex, 3 h; for receptor occupancy at 0.03 mg/kg: 0.03 mg/kg oral; for receptor occupancy at 0.1 mg/kg: 0.1 mg/kg oral; for receptor occupancy at 0.3 mg/kg: 0.3 mg/kg oral; for receptor occupancy at 1 mg/kg: 1 mg/kg oral; for receptor occupancy at 3 mg/kg: 3 mg/kg oral. As to the method:
Next, brain TSPO occupancy of the compound of the present invention was measured by using brain (cerebral cortex and hippocampus) homogenates of the vehicle treated group and the compound of the present invention treated group, using [^3H] PK11195 as a radiotracer. PK11195 was dissolved in dimethyl sulfoxide (DMSO) to prepare a 4 mmol/L solution. After preparing an ethanol solution of 100 nmol/L [^3H] PK11195 (PerkinElmer, Inc.), the solution was diluted 50-fold with 50 mmol/L HEPES buffer (Sigma-Aldrich Co.). In the case of determining the total binding amount of the radiotracer, 50 mmol/L HEPES (99 μL) and DMSO (1 μL) were added to Nunc MiniSorp (trade name, 12×75 mm, Thermo Fisher Scientific Inc.). In the case of determining the nonspecific binding amount of the radiotracer, 4 mmol/L PK11195 (1 μL) was substituted for DMSO (1 μL). The brain homogenate (50 μL) derived from cerebral cortex or the hippocampus was added to the tube. Then [^3H] PK11195 (50 μL) (cerebral cortex: final concentration 0.4532 nmol/L, hippocampus: final concentration 0.4520 nmol/L) was added and stirred, and the mixture was incubated for 90 minutes at 4° C. After completion of the reaction, ice-cold 50 mmol/L HEPES (2 mL) was added to the tube, and then the mixture was suction filtered on a glass fiber filter (GF/B, Brandel Inc.) which pretreated with 0.3 w/v % polyethyleneimine (Sigma-Aldrich Co.), to collect the brain homogenate. After drying the glass fiber filter, the absorbing part of the brain homogenate was transferred to a liquid scintillation vial. ACS-II scintillation cocktail (7 mL) was added to the liquid scintillation vial and stirred, and the radioactivity was measured by liquid scintillation counter (TRI-CARB2900TR, PerkinElmer Life and Analytical Sciences Inc.). Specific binding amount (dpm) of [3H] PK11195 in each brain homogenate was set to a value obtained by subtracting the nonspecific binding amount (dpm) from the total binding amount (dpm). TSPO occupancy (%) in cerebral cortex and hippocampus, of the compound of the present invention treated group, were calculated according to the following equation.
TSPO Occupancy (%)=(1−X/Y)×100
X: Specific binding amount (dpm) in each brain homogenate Y: Average value (dpm) of specific binding amount in control group
The vehicle (0.5 w/v % methylcellulose 400 cP solution) or the compound of the present invention (0.03, 0.1, 0.3, 1 or 3 mg/kg) was orally administered to male Sic: Wistar rats (Japan SLC, Inc., at the time of use: 11 weeks old). After 3 hours of the administration, in the same manner as Biological example 1, brain TSPO occupancy of the compound of the present invention relative to the specific binding of the vehicle control group was measured by measuring the specific binding amount of [^3H] PK11195 or [^3H] PBR28 (Sekisui Medical Co., Ltd.) of brain (cerebral cortex) homogenates (n=8 in each group). As a result, the average TSPO occupancy of 0.03, 0.1, 0.3, 1 and 3 mg/kg group of the compound of the present invention was […] in the cerebral cortex when [^3H] PK11195 was used as a radiotracer. On the other hand, the average TSPO occupancy was 6.5, 11.5, 40.4, 77.7 and 90.2% in the cerebral cortex when [^3H] PBR28 was used as a radiotracer. […] PBR28 or [^3H] PK11195 radiotracer.

Assay [2] has as its system brain TSPO. Briefly: Ex vivo brain TSPO occupancy in monkeys, [3H] PBR28. To be noted: rhesus monkey, once on day 4, 2 h after final dose. As for the experimental part:
The vehicle (0.5 w/v % methylcellulose 400 cP solution) or the compound of the present invention (0.4 or 1 mg/kg) was orally administered twice daily for 3 days, once on day 4 to male rhesus monkeys (Shin Nippon Biomedical Laboratories, Ltd., at the time of use: 4 to 6 kg). After 2 hours of the final administration, in the same manner as Biological example 1, brain TSPO occupancy of the compound of the present invention relative to the specific binding of the vehicle control group was measured by measuring the specific binding amount of [3H] PBR28 on brain (anterior cingulate cortex, caudate nucleus, amygdala, hippocampus and occipital lobe) homogenates (n=3 in vehicle control group, n=5 in each the compound of the present invention treated group). As a result, the average TSPO occupancy of brain 5 sites was 37.9 and 56.6% in 0.4 and 1 mg/kg group of the compound of the present invention. The average plasma concentration of the compound of the present invention was 23.9 and 154 ng/mL in 0.4 and 1 mg/kg group.

For the compound `COc1cc(Cl)ccc1[C@H]1c2[nH]c3cccc(F)c3c2C2(CC2)CN1C(C)=O` [the compound of the present invention, (1S)-2-acetyl-1-(4-chloro-2-methoxyphenyl)-5-fluoro-1,2,3,9-tetrahydrospiro[β-carboline-4,1′-cyclopropane]], at brain TSPO [1] ([3H] PBR28), the receptor occupancy at 0.03 mg/kg amounted to 6.5%, the receptor occupancy at 0.1 mg/kg was found to be 11.5%, the receptor occupancy at 0.3 mg/kg came out at 40.4% and the receptor occupancy at 1 mg/kg is 77.7%. At brain TSPO [1] ([3H] PBR28), the receptor occupancy at 3 mg/kg was 90.2%. At brain TSPO [1] ([3H] PK11195), the receptor occupancy at 0.03 mg/kg is -1.3%, the receptor occupancy at 0.1 mg/kg was determined as 14.9%, the receptor occupancy at 0.3 mg/kg came out at 48.1% and the receptor occupancy at 1 mg/kg stood at 80.9%. In addition, the receptor occupancy at 3 mg/kg at brain TSPO [1] ([3H] PK11195) turned out to be 91.3%. In addition, the “average TSPO occupancy of brain 5 sites” value with brain TSPO [2] (0.4 mg/kg oral twice daily 3 days) was found to be 37.9%. Also, the “average TSPO occupancy of brain 5 sites” value with brain TSPO [2] (1 mg/kg oral twice daily 3 days) came to 56.6%.
